Measured values published in PubChem BioAssay (NCI).
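Interpolation was linear, between the two tested concentrations surrounding the appropriate level; five concentrations were tested over 48 hours in 96-well plates. TGI marks complete inhibition of growth.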

Tests used:
Test in all cases: NCI-60 cell line screen, 48 h
786-0 renal = test system: 786-0 renal
A498 renal = test system: A498 renal
A549 NSCLC = test system: A549 NSCLC
ACHN renal = test system: ACHN renal
BT-549 breast = test system: BT-549 breast
CAKI-1 renal = test system: CAKI-1 renal
CCRF-CEM leukemia = test system: CCRF-CEM leukemia
COLO 205 colon = test system: COLO 205 colon
DU-145 prostate = test system: DU-145 prostate
EKVX NSCLC = test system: EKVX NSCLC
HCT-116 colon = test system: HCT-116 colon
HCT-15 colon = test system: HCT-15 colon
HL-60(TB) leukemia = test system: HL-60(TB) leukemia
HOP-62 NSCLC = test system: HOP-62 NSCLC
HOP-92 NSCLC = test system: HOP-92 NSCLC
HS 578T breast = test system: HS 578T breast
HT29 colon = test system: HT29 colon
IGROV1 ovarian = test system: IGROV1 ovarian
K-562 leukemia = test system: K-562 leukemia
KM12 colon = test system: KM12 colon
LOX IMVI melanoma = test system: LOX IMVI melanoma
M14 melanoma = test system: M14 melanoma
MALME-3M melanoma = test system: MALME-3M melanoma
MCF7 breast = test system: MCF7 breast
MDA-MB-231 breast = test system: MDA-MB-231 breast
MDA-MB-435 = test system: MDA-MB-435
MDA-N = test system: MDA-N
MOLT-4 leukemia = test system: MOLT-4 leukemia
NCI-H226 lung = test system: NCI-H226 lung
NCI-H23 lung = test system: NCI-H23 lung
NCI-H460 lung = test system: NCI-H460 lung
NCI/ADR-RES ovarian = test system: NCI/ADR-RES ovarian
OVCAR-3 ovarian = test system: OVCAR-3 ovarian
OVCAR-4 ovarian = test system: OVCAR-4 ovarian
OVCAR-5 ovarian = test system: OVCAR-5 ovarian
OVCAR-8 ovarian = test system: OVCAR-8 ovarian
PC-3 prostate = test system: PC-3 prostate
RPMI-8226 leukemia = test system: RPMI-8226 leukemia
RXF 393 renal = test system: RXF 393 renal
SF-268 CNS = test system: SF-268 CNS
SF-295 CNS = test system: SF-295 CNS
SF-539 CNS = test system: SF-539 CNS
SK-MEL-2 melanoma = test system: SK-MEL-2 melanoma
SK-MEL-28 melanoma = test system: SK-MEL-28 melanoma
SK-MEL-5 melanoma = test system: SK-MEL-5 melanoma
SK-OV-3 ovarian = test system: SK-OV-3 ovarian
SN12C renal = test system: SN12C renal
SNB-19 CNS = test system: SNB-19 CNS
SNB-75 CNS = test system: SNB-75 CNS
SW-620 colon = test system: SW-620 colon
T-47D breast = test system: T-47D breast
TK-10 renal = test system: TK-10 renal
U251 CNS = test system: U251 CNS
UACC-257 melanoma = test system: UACC-257 melanoma
UACC-62 melanoma = test system: UACC-62 melanoma
UO-31 renal = test system: UO-31 renal
HCC-2998 colon = test system: HCC-2998 colon
NCI-H522 lung = test system: NCI-H522 lung

Compound `CC1(C)CN(c2ccccc2)C(=O)C1OC(=O)[C@@]1(C)C[C@@H]2C=C[C@H]1C2` (stereo partly drawn) has a TGI (786-0 renal) of 39.2 µM, a TGI (A498 renal) of 61.3 µM and a TGI (A549 NSCLC) of 83.7 µM. It also gave a TGI (ACHN renal) greater than 100 µM, a TGI (BT-549 breast) of 82.5 µM and a TGI (CAKI-1 renal) of 61.5 µM. It also gave a TGI (CCRF-CEM leukemia) of 81.4 µM, a TGI (COLO 205 colon) of 34 µM and a TGI (DU-145 prostate) greater than 100 µM. For the same compound, the TGI (EKVX NSCLC) was 59.9 µM, the TGI (HCT-116 colon) was 35.8 µM and the TGI (HCT-15 colon) was 55.1 µM. For the same compound, the TGI (HL-60(TB) leukemia) was 46.3 µM, the TGI (HOP-62 NSCLC) was 40.8 µM and the TGI (HOP-92 NSCLC) was 60.6 µM. The TGI (HS 578T breast) was 54.7 µM, the TGI (HT29 colon) was 28.8 µM and the TGI (IGROV1 ovarian) was 41.3 µM. It also gave a TGI (K-562 leukemia) greater than 100 µM, a TGI (KM12 colon) of 45.2 µM and a TGI (LOX IMVI melanoma) of 40.3 µM. It also gave a TGI (M14 melanoma) of 40.1 µM, a TGI (MALME-3M melanoma) of 28.3 µM and a TGI (MCF7 breast) of 58 µM. The TGI (MDA-MB-231 breast) was 79.3 µM, the TGI (MDA-MB-435) was 42 µM and the TGI (MDA-N) was 41.6 µM. The TGI (MOLT-4 leukemia) was greater than 100 µM, the TGI (NCI-H226 lung) was 53.6 µM and the TGI (NCI-H23 lung) was 56 µM. The TGI (NCI-H460 lung) was 55 µM, the TGI (NCI/ADR-RES ovarian) was 52.2 µM and the TGI (OVCAR-3 ovarian) was greater than 100 µM. For the same compound, the TGI (OVCAR-4 ovarian) was 39.9 µM, the TGI (OVCAR-5 ovarian) was 56.6 µM and the TGI (OVCAR-8 ovarian) was greater than 100 µM. It also gave a TGI (PC-3 prostate) of 83.2 µM, a TGI (RPMI-8226 leukemia) of 30 µM and a TGI (RXF 393 renal) of 35.4 µM. It also gave a TGI (SF-268 CNS) of 82.5 µM, a TGI (SF-295 CNS) of 46.7 µM and a TGI (SF-539 CNS) of 52.9 µM. For the same compound, the TGI (SK-MEL-2 melanoma) was 35.4 µM, the TGI (SK-MEL-28 melanoma) was 35.1 µM and the TGI (SK-MEL-5 melanoma) was 29.4 µM. The TGI (SK-OV-3 ovarian) was 94.7 µM, the TGI (SN12C renal) was 49.8 µM and the TGI (SNB-19 CNS) was 65.5 µM. The TGI (SNB-75 CNS) was 75 µM, the TGI (SW-620 colon) was greater than 100 µM and the TGI (T-47D breast) was 73.2 µM. For the same compound, the TGI (TK-10 renal) was 64.7 µM, the TGI (U251 CNS) was 43.9 µM and the TGI (UACC-257 melanoma) was 42.5 µM. It also gave a TGI (UACC-62 melanoma) of 41.4 µM and a TGI (UO-31 renal) of 30.8 µM.
Work on `Cc1cc(=O)n2nc(CSc3nnc(N)s3)sc2n1` yielded a TGI (786-0 renal) greater than 100 µM, a TGI (A549 NSCLC) greater than 100 µM and a TGI (ACHN renal) greater than 100 µM. It also gave a TGI (BT-549 breast) greater than 100 µM, a TGI (CAKI-1 renal) greater than 100 µM and a TGI (CCRF-CEM leukemia) greater than 100 µM. For the same compound, the TGI (COLO 205 colon) was greater than 100 µM, the TGI (DU-145 prostate) was greater than 100 µM and the TGI (EKVX NSCLC) was greater than 100 µM. It also gave a TGI (HCC-2998 colon) greater than 100 µM, a TGI (HCT-116 colon) greater than 100 µM and a TGI (HCT-15 colon) greater than 100 µM. The TGI (HL-60(TB) leukemia) was greater than 100 µM, the TGI (HOP-62 NSCLC) was greater than 100 µM and the TGI (HOP-92 NSCLC) was greater than 100 µM. The TGI (HS 578T breast) was greater than 100 µM, the TGI (HT29 colon) was greater than 100 µM and the TGI (IGROV1 ovarian) was greater than 100 µM. The TGI (K-562 leukemia) was greater than 100 µM, the TGI (KM12 colon) was greater than 100 µM and the TGI (LOX IMVI melanoma) was greater than 100 µM. The TGI (M14 melanoma) was greater than 100 µM, the TGI (MALME-3M melanoma) was greater than 100 µM and the TGI (MCF7 breast) was greater than 100 µM. It also gave a TGI (MDA-MB-231 breast) greater than 100 µM, a TGI (MDA-MB-435) greater than 100 µM and a TGI (MDA-N) greater than 100 µM. It also gave a TGI (MOLT-4 leukemia) greater than 100 µM, a TGI (NCI-H226 lung) greater than 100 µM and a TGI (NCI-H23 lung) greater than 100 µM. It also gave a TGI (NCI-H460 lung) greater than 100 µM, a TGI (NCI-H522 lung) greater than 100 µM and a TGI (NCI/ADR-RES ovarian) greater than 100 µM. The TGI (OVCAR-3 ovarian) was greater than 100 µM, the TGI (OVCAR-4 ovarian) was greater than 100 µM and the TGI (OVCAR-5 ovarian) was greater than 100 µM. For the same compound, the TGI (OVCAR-8 ovarian) was greater than 100 µM, the TGI (PC-3 prostate) was greater than 100 µM and the TGI (RPMI-8226 leukemia) was greater than 100 µM. For the same compound, the TGI (RXF 393 renal) was greater than 100 µM, the TGI (SF-268 CNS) was greater than 100 µM and the TGI (SF-295 CNS) was greater than 100 µM. For the same compound, the TGI (SF-539 CNS) was greater than 100 µM, the TGI (SK-MEL-2 melanoma) was greater than 100 µM and the TGI (SK-MEL-28 melanoma) was greater than 100 µM. It also gave a TGI (SK-MEL-5 melanoma) greater than 100 µM, a TGI (SK-OV-3 ovarian) greater than 100 µM and a TGI (SN12C renal) greater than 100 µM. The TGI (SNB-19 CNS) was greater than 100 µM, the TGI (SNB-75 CNS) was greater than 100 µM and the TGI (SW-620 colon) was greater than 100 µM. It also gave a TGI (T-47D breast) greater than 100 µM, a TGI (TK-10 renal) greater than 100 µM and a TGI (U251 CNS) greater than 100 µM. The TGI (UACC-257 melanoma) was greater than 100 µM, the TGI (UACC-62 melanoma) was greater than 100 µM and the TGI (UO-31 renal) was greater than 100 µM.
